The source of these data is patent US10450306B2, “Isoxazole analogs as FXR agonists and methods of use thereof” (Enanta Pharmaceuticals, Inc., priority 2016, dated 2019).

One may read the EC50 as the concentration that produces a half-maximal response. A high value points to a need for much substance.

The assay addresses T1, human FXR (NR1H4) (Homo sapiens, UniProt Q96RI1).
T1 construct: host or cells: CHO (Chinese hamster ovary) reporter cells
T1 sequence (Q96RI1 1-486): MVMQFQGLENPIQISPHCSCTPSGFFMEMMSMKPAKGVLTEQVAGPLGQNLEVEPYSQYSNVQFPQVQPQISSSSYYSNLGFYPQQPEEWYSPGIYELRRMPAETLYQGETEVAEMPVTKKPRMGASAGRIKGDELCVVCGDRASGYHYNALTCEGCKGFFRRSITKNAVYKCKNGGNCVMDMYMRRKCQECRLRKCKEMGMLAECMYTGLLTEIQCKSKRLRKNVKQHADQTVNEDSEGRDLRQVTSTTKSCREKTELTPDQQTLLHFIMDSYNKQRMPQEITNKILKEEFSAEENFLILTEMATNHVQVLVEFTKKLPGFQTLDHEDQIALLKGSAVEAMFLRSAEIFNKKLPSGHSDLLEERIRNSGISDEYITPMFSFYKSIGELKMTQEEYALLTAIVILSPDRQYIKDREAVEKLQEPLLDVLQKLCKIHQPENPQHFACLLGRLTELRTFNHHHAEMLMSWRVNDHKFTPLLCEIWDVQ
Kind of assay: Human FXR (NR1H4) Assay: Gal4 promoter driven luciferase reporter transactivation in CHO cells (Indigo Bioscience kit IB00601). For Efficacy (%): efficacy normalized to CDCA set as 100%. The note with it: for Emax: CHO, read-out: Efficacy (%); for EC50: Human FXR (NR1H4) reporter assay, potency ranges. The class given is cell-based. An outline of the steps: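 Luminescence read-out after 22 h exposure quantified FXR transactivation; compounds were tested at several doses, 0.2% DMSO, in CHO cells engineered with human NR1H4 and a luciferase gene linked to an FXR-responsive promoter.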
(A reporter such as luciferase makes a cellular process visible.)

Structures are written as SMILES.

In the case of `COC(=O)c1cc(F)c2nc(N3CCC(NCc4c(-c5ccccc5OC(F)(F)F)noc4C4CC4)CC3)sc2c1` [Example 641], the Emax came out at 40% and the EC50 lay in the range of 100 to 1000 nM.
The matching figures for `O=C(O)c1cc(F)c2nc(N3CCC(NCc4c(-c5ccccc5OC(F)(F)F)noc4C4CC4)CC3)sc2c1` [Example 642]: 85.3% and 100 to 1000 nM.
On the same counts, the results for `COC(=O)c1cc(C2CC2)c2nc(N3C4CCC3CC(NCc3c(-c5ccccc5OC(F)(F)F)noc3C3CC3)C4)sc2c1` (centres unmarked) [Example 643] are 52% and 1 to 100 nM.
For the compound `O=C(O)c1cc(C2CC2)c2nc(N3C4CCC3CC(NCc3c(-c5ccccc5OC(F)(F)F)noc3C3CC3)C4)sc2c1` (centres unmarked) [Example 644], the Emax worked out at 94.5% and the EC50 is below 1 nM.
`O=C(O)c1cc(F)c(N2C3CCC2CC(NCc2c(-c4ccccc4OC(F)(F)F)noc2C2CC2)C3)c(F)c1` (centres unmarked) [Example 646]: the Emax was 105% and the concentration for a half-maximal effect (EC50) was 1 to 100 nM.
On to `O=C(NS(=O)(=O)C1CC1)c1cnc2nc(N3C4CCC3CC(NCc3c(-c5ccccc5OC(F)(F)F)noc3C3CC3)C4)sc2n1` (centres unmarked) [Example 695], for which the Emax was found to be 75% and the EC50 was in the range of 1 to 100 nM.
The matching figures for `CCOC(=O)c1ccc2nc(N3C4CCC3CC(NCc3c(-c5ccccc5OC(F)(F)F)noc3C3CC3)C4)sc2c1` (centres unmarked) [Example 696]: 59.1% and 1 to 100 nM.
On the same counts, the results for `CC1(S(=O)(=O)NC(=O)c2ccc3nc(N4C5CCC4CC(NCc4c(-c6ccccc6OC(F)(F)F)noc4C4CC4)C5)sc3c2)CC1` (centres unmarked) [Example 702] are 113% and 1 to 100 nM.
On the same counts, the results for `O=C(NS(=O)(=O)C1CC1)c1ccc2nc(N3CCC(NCc4c(-c5ccccc5OC(F)(F)F)noc4C4CC4)CC3)sc2c1` [Example 791] are 63% and above 1000 nM.
As for `CC1(S(=O)(=O)NC(=O)c2ccc3nc(N4CCC(NCc5c(-c6ccccc6OC(F)(F)F)noc5C5CC5)CC4)sc3c2)CC1` [Example 900-1], the Emax stood at 80.5% and the EC50 was 100 to 1000 nM.
On the same counts, the results for `CC1(S(=O)(=O)NC(=O)c2cc(F)c3nc(N4C5CCC4CC(NCc4c(-c6ccccc6OC(F)(F)F)noc4C4CC4)C5)sc3c2)CC1` (centres unmarked) [Example 900-2] are 109% and 1 to 100 nM.
The matching figures for `O=C(NS(=O)(=O)C1CC1)c1cc(F)c2nc(N3CCC(NCc4c(-c5ccccc5OC(F)(F)F)noc4C4CC4)CC3)sc2c1` [Example 900-3]: 44.8% and 100 to 1000 nM.
On the same counts, the results for `CC1(S(=O)(=O)NC(=O)c2cc(F)c3nc(N4CCC(NCc5c(-c6ccccc6OC(F)(F)F)noc5C5CC5)CC4)sc3c2)CC1` [Example 900-4] are 84.8% and above 1000 nM.
Regarding `CC(C)Oc1cc(C(=O)NS(=O)(=O)C2CC2)cc2sc(N3CCC(NCc4c(-c5ccccc5OC(F)(F)F)noc4C4CC4)CC3)nc12` [Example 900-5], the Emax was 68.5% and the EC50 was in the range of 100 to 1000 nM.
On the same counts, the results for `CC(C)Oc1cc(C(=O)NS(=O)(=O)C2(C)CC2)cc2sc(N3CCC(NCc4c(-c5ccccc5OC(F)(F)F)noc4C4CC4)CC3)nc12` [Example 900-6] are 112% and 1 to 100 nM.
As for `CC1(S(=O)(=O)NC(=O)c2cc(C3CC3)c3nc(N4C5CCC4CC(NCc4c(-c6ccccc6OC(F)(F)F)noc4C4CC4)C5)sc3c2)CC1` (centres unmarked) [Example 900-9], the Emax amounted to 122% and the EC50 is below 1 nM.
With `O=C(NS(=O)(=O)C1CC1)c1cc(F)c(N2C3CCC2CC(NCc2c(-c4ccccc4OC(F)(F)F)noc2C2CC2)C3)c(F)c1` (centres unmarked) [Example 900-11], the Emax worked out at 70.5% and the EC50 lay within 1 to 100 nM.
On to `CC1(S(=O)(=O)NC(=O)c2cc(F)c(N3C4CCC3CC(NCc3c(-c5ccccc5OC(F)(F)F)noc3C3CC3)C4)c(F)c2)CC1` (centres unmarked) [Example 900-12], for which the Emax was 67% and the EC50 is 1 to 100 nM.
On the same counts, the results for `O=C(NS(=O)(=O)C1CC1)c1ccc(N2C3CCC2CC(NCc2c(-c4ccccc4OC(F)(F)F)noc2C2CC2)C3)nc1` (centres unmarked) [Example 900-13] are 59.5% and 1 to 100 nM.
The matching figures for `CC1(S(=O)(=O)NC(=O)c2ccc(N3C4CCC3CC(NCc3c(-c5ccccc5OC(F)(F)F)noc3C3CC3)C4)nc2)CC1` (centres unmarked) [Example 900-14]: 46.5% and 100 to 1000 nM.
In the case of `O=C(NS(=O)(=O)C1CC1)c1ccc2nc(N3C4CCC3CC(NCc3c(-c5ccccc5OC(F)(F)F)noc3C3CC3)C4)ccc2c1` (centres unmarked) [Example 900-15], the Emax turned out to be 82.5% and the EC50 lay within 1 to 100 nM.
On the same counts, the results for `CC1(S(=O)(=O)NC(=O)c2ccc3nc(N4C5CCC4CC(NCc4c(C6CCC7(CC6)CC7)noc4C4CC4)C5)sc3c2)CC1` (centres unmarked) [Example 1202] are 85.5% and 1 to 100 nM.
On the same counts, the results for `CC(C)Oc1cc(C(=O)O)cc2sc(N3C4CCC3CC(NCc3c(-c5ccccc5C(F)(F)F)noc3C3CC3)C4)nc12` (centres unmarked) [Example 1401] are 125% and 100 to 1000 nM.
The matching figures for `CC(C)Oc1cc(C(=O)NS(=O)(=O)C2(C)CC2)cc2sc(N3C4CCC3CC(NCc3c(-c5ccccc5C(F)(F)F)noc3C3CC3)C4)nc12` (centres unmarked) [Example 1402]: 136% and 1 to 100 nM.
Consider `COC(=O)c1cc(OC(C)C)c2nc(N3C4CCC3CC(NCc3c(-c5ccccc5C(F)(F)F)noc3C3CC3)C4)sc2c1` (centres unmarked) [Example 1403], for which the Emax was 119% and the concentration for a half-maximal effect (EC50) was in the range of 1 to 100 nM.
Regarding `COC(=O)c1cc(C)c2nc(N3C4CCC3CC(NCc3c(-c5ccccc5C(F)(F)F)noc3C3CC3)C4)sc2c1` (centres unmarked) [Example 1404], the Emax came to 46% and the EC50 is 100 to 1000 nM.
`Cc1cc(C(=O)O)cc2sc(N3C4CCC3CC(NCc3c(-c5ccccc5C(F)(F)F)noc3C3CC3)C4)nc12` (centres unmarked) [Example 1405]: the Emax was 125% and the EC50 was 1 to 100 nM.
For the compound `Cc1cc(C(=O)NS(=O)(=O)C2(C)CC2)cc2sc(N3C4CCC3CC(NCc3c(-c5ccccc5C(F)(F)F)noc3C3CC3)C4)nc12` (centres unmarked) [Example 1406], the Emax turned out to be 133% and the EC50 was below 1 nM.
As for `COC(=O)c1cc(F)c2nc(N3C4CCC3CC(NCc3c(-c5ccccc5C(F)(F)F)noc3C3CC3)C4)sc2c1` (centres unmarked) [Example 1407], the Emax is 92.5% and the EC50 lay within 1 to 100 nM.
For `O=C(O)c1cc(F)c2nc(N3C4CCC3CC(NCc3c(-c5ccccc5C(F)(F)F)noc3C3CC3)C4)sc2c1` (centres unmarked) [Example 1408], the Emax is 103% and the EC50 was in the range of 1 to 100 nM.
On the same counts, the results for `COC(=O)c1cc(C2CC2)c2nc(N3C4CCC3CC(NCc3c(-c5ccccc5C(F)(F)F)noc3C3CC3)C4)sc2c1` (centres unmarked) [Example 1409] are 52% and 1 to 100 nM.
The matching figures for `O=C(O)c1cc(C2CC2)c2nc(N3C4CCC3CC(NCc3c(-c5ccccc5C(F)(F)F)noc3C3CC3)C4)sc2c1` (centres unmarked) [Example 1410]: 74.5% and below 1 nM.
With `O=C(O)c1ccc2nc(N3C4CCC3CC(NCc3c(-c5c(F)cccc5F)noc3C3CC3)C4)sc2c1` (centres unmarked) [Example 1411], the Emax was found to be 94.7% and the EC50 lay within 1 to 100 nM.
Consider `CCOC(=O)c1ccc2nc(N3C4CCC3CC(NCc3c(-c5ccccc5C(F)(F)F)noc3C3CC3)C4)sc2c1` (centres unmarked) [Example 1412], for which the Emax turned out to be 75% and the EC50 fell in the range of 100 to 1000 nM.
